A short description of data set [1]: CellTiter-Glo Luminescent Cell Viability Assay on non-tumor CHO cells. In kind it is cell-based, Chinese hamster. The note with it: Chinese hamster, CHO cells, 48 h, 10^−5 M, mean ± SD, n = 9. The procedure:
(§1) Three promising conjugates (20, 23, 25) were selected for testing on the non-tumor CHO cell line in the CellTiter-Glo Luminescent Cell Viability Assay (Promega Corporation, Madison, WI, USA) to reveal their selectivity for cancer cells.
(§2) Compounds 20, 23, and 25 were dissolved in DMSO in 10 mM stock solutions and stored frozen until use. CHO cells were cultured in complete Dulbecco’s Modified Eagle’s Medium (DMEM, low glucose (1 g/L)) supplemented with 10% fetal bovine serum, 1% Gibco GlutaMAX-I (100×) solution, 1% Gibco MEM non-essential amino acid solution (100×), and 0.1% penicillin–streptomycin mixture. Cells were grown in T-25 size cell culture flasks under standard cell culture conditions (37 °C, 5% CO2) and passaged at 70–80% confluency. The assay was performed according to the manufacturer’s protocol, as described previously. Briefly, CHO cells were seeded to opaque 96-well culture plates at a density of 5000 cells/100 µL complete DMEM/well. The side rows and columns of the plate were filled with sterile phosphate-buffer saline to avoid an edge effect. Following overnight incubation (37 °C, 5% CO2), the culture medium was aspirated from the cells and replaced with increasing concentrations of drug solutions (10^−5, 10^−6, and 10^−7 M) diluted from the stock solution in sterile complete DMEM (100 µL/well). Untreated cells served as a control, and complete DMEM served as a luminescent background control. Drug-treated cells were incubated for 48 h (37 °C, 5% CO2), and then equilibrated to room temperature in 30 min. At the end of the incubation period, 100 µL of room temperature CellTiter-Glo reagent was added to each well, and the plates were placed on an orbital shaker for 2 min and incubated for additional 10 min at room temperature without shaking. The luminescent signal was measured using an EnSpire AlphaLisa microplate reader (Perkin Elmer, Inc., Waltham, MA, USA). The normalized luminescent values of the treated cells were compared to those of the untreated control. The statistical analysis and calculation of IC50 values were performed in GraphPad Prism 8.0.1 (GraphPad, La Jolla, CA, USA). Estimated IC50 values were calculated by using non-linear regression by fitting a sigmoidal dose–response curve to the data points.
For orientation: Cellular ATP, detected with luciferase, serves as a proxy for viable cell number.

Data set [2] deals with non-tumor Chinese hamster ovary (CHO) cells. The data set is described as above. It counts as cell-based. As to conditions: for effect on CHO cell viability (in words) / IC50: 48 h; for effect on CHO cell viability (in words): 10^−7 and 10^−6 M; for IC50: read-out: IC50 (estimated). The procedure: as §1, §2
The subject of the next data set is HeLa cell line. Details: method as in PMID 32102414. As to conditions: cited from earlier work.
Where [3] appears, read: CHO cells (non-tumor Chinese hamster ovary cell line).
[4] abbreviates: Cricetulus griseus, CHO cells, roughly estimated from three concentrations.

Like-named read-outs stand apart in the source and are kept apart here.

In the case of `CC[C@]12C=CCN3CC[C@@]4(c5ccc(OC)cc5N(C)[C@H]4[C@@](O)(C(=O)OC)[C@@H]1OC(=O)CCCN1CCN(Cc4ccc(C(F)(F)F)cc4)CC1)[C@@H]32` [Compound 23], the viability at 48 h in data set [1] (setting [3]) came out at 52.8 ± 7.25%. In data set [2] (CHO cells), the “effect on CHO cell viability (in words)” value is “did not affect CHO cell viability”. Also, in data set [2] (Cricetulus griseus, CHO, non-tumor cells, read-out: half-maximal effective concentration (EC50)), the EC50 came out at 10.8 µM. Further, the IC50 in data set [2] (setting [4]) is around 10.8 µM.

Consider `CCC12C=CCN3CCC4(c5ccc(OC)cc5N(C)C4C(O)(C(=O)OC)C1OC(=O)CCCN1CCN(C)CC1)C32` (centres unmarked) [Compound 3], for which the concentration for half-maximal inhibition (IC50) in the data set with HeLa cell line is 9.36 µM.

As for `CCC12C=CCN3CCC4(c5cc(NC(=O)CN6CCN(C(c7ccc(F)cc7)c7ccc(F)cc7)CC6)c(OC)cc5N(C)C4C(O)(C(=O)OC)C1OC(C)=O)C32` (centres unmarked) [Compound 20], in data set [1] (setting [3]), the viability at 48 h was determined as 1.25 ± 0.77%. For the same compound, the “effect on CHO cell viability (in words)” value in data set [2] (CHO cells) is on record as “did not affect CHO cell viability”. For the same compound, the IC50 in data set [2] (setting [4]) was around 2.54 µM.

`CC[C@]12C=CCN3CC[C@@]4(c5ccc(OC)cc5N(C)[C@H]4[C@@](O)(C(=O)OC)[C@@H]1OC(=O)CCCN1CCN(C(c4ccc(F)cc4)c4ccc(F)cc4)CC1)[C@@H]32` [Compound 25]: in data set [1], the viability at 48 h was 33.5 ± 19.6%. The “effect on CHO cell viability (in words)” value in data set [2] (CHO cells) is reported as “did not affect CHO cell viability”. Besides, the IC50 in data set [2] (Cricetulus griseus, CHO) was around 6.64 µM.

For orientation: viability means a per cent measure of how many cells are alive, often set against a control. As a reminder, the IC50 is the concentration that gives 50% inhibition.

These data come from PMC11277489, “Novel Piperazine Derivatives of Vindoline as Anticancer Agents” (International Journal of Molecular Sciences, 2024).
